According to patent US20050192340A1, “Simvastatin formulations and methods of making same” (priority 2003, published 2005):

Assay: In vitro hydrolysis of simvastatin formulations under simulated gastric conditions (dissolution in 0.1N HCl, HPLC)
Type: physicochemical
Conditions: 37° C.
Description: Generally, the simvastatin formulations were prepared by heating menthol to about 60° C. while stirring and adding a surface active agent (either TWEEN® or Poloxamer) and sodium ducosate or sodium lauryl sulfate. The mixture was stirred until all the components dissolved to form a melt. Thereafter, the melt was cooled to about 50° C., simvastatin was added during stirring until dissolved, the mixture was cooled to room temperature, and dispensed into capsules. After about an hour the liquid in the capsule had gelled. Each capsule was filled with enough formulation to have a dose of 20 mg of simvastatin.
Each formulation was tested by dissolution in 50 ml of 0.1N HCl at 37° C. with stirring. […] It was determined that the retention times for the simvastatin hydroxyl acid was 3.6 minutes and simvastatin lactone was 5.7 minutes.

CCC(C)(C)C(=O)O[C@H]1C[C@@H](C)C=C2C=C[C@H](C)[C@H](CCC3C[C@@H](O)CC(=O)O3)[C@H]21 (stereo partly drawn) [Simvastatin 100%]
0%: % hydrolyzed Simvastatin (0.1N HCl, 60 min, weight % hydrolyzed simvastatin from the initial simvastatin amount) | % converted to hydroxyl acid (0.1N HCl, 60 min, weight % of the total dissolved simvastatin in the open hydroxy acid form) | % Dissolved 60 min 0.1 N HCl (50 ml 0.1N HCl, stirring, total dissolved simvastatin (closed lactone + open hydroxy acid form), 20 mg capsule)
